Earlier results, collected in patent US10485768B2, “Treatment for glioblastoma” (SignPath Pharma Inc., priority 2015, dated 2019).

Key:
[1] = system: human glioma U87 cells; settings: U87 cells xenografted into athymic mice
[2] = system: C6 implant rat glioma; settings: C6 implant rat glioma model
[3] = system: human primary and recurrent GBM cell lines

Which “growth of xenografted tumor cells” value [1] does the source give for `COc1cc(/C=C/C(=O)CC(=O)/C=C/c2ccc(O)c(OC)c2)ccc1O` [Curcumin, diferuloylmethane] here?
The value was “suppress growth”.

What about the brain tumor volume [2] of the same compound?
The brain tumor volume was “reduction in brain tumor volume”.

What about the cell growth [3] of the same compound?
Its cell growth is “reduced cell growth”.
